The values below come from patent publication US5278285A, “Variant of Kunitz-type inhibitor derived from the α3-chain of human type VI collagen produced by recombinant DNA technology” (Bayer Aktiengesellschaft, priority 1990, dated 1994).

The conditions of assay [1]: application during open heart surgery, clinical studies; cited from earlier work.
In assay [2] the test system is human trypsin. Kind of assay: Trypsin inhibition assay. Type of assay: biochemical. Conditions: substrate benzoyl-L-arginine p-nitroanilide; product expressed in yeast. Here is the method:
The trypsin activity was determined using the method of geiger & Fritz, Methods of Enzymatic Analysis, Vol. V, 3rd ed., Bergmeyer (ed.), Verlag Chemie, Weinheim (1984), p. 121 with benzoyl-L-arginine p-nitroanilide as substrate. The liberated p-nitroaniline was measured in a spectrophotometer at 405 nm. Enzyme and inhibitor were preincubated for 15 min before addition of the substrate.

On to aprotinin, for which the blood loss entry in assay [1] is reported as “reduces blood loss significantly”.

“α3(VI) inhibitor: Kunitz type proteinase inhibitor, aminoacid pos. 2873 to 2931 of the C5 domain of human type VI collagen α3 chain, expressed in yeast (pKol 100)”: the “trypsin inhibition (biological activity)” value in assay [2] is “inhibits human trypsin”.
